Where two headings read alike, the source gives them in different places.
Experiments:
[1] = tested on: Key Broadleaf Weed and Crop Species; test: Post-Emergent Test II: postemergent herbicidal activity, visual rating after 14 d (Table 7); format: in vivo; conditions: post-emergence, 336 h; for pest or weed control at 35 g/ha: 35 g ai/ha; for pest or weed control at 70 g/ha: 70 g ai/ha; for pest or weed control at 140 g/ha: 140 g ai/ha
Summary of the method: (§1)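 Visual scoring at 14 d, 0 (no injury) to 100 (complete kill), relative to untreated plants. Postemergent overhead track-sprayer application, 187 L/ha, at a top rate plus serial ½×–1/16× rates, to plants grown 7–21 d at about 23–29° C day under a 15 h photoperiod, then subirrigated.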

[2] = tested on: Key Grass and Sedge Weeds as well as Grass Crops; test: Post-Emergent Test II: postemergent herbicidal activity, visual rating after 14 d (Table 8); format: in vivo; conditions: post-emergence, 336 h; for pest or weed control at 35 g/ha: 35 g ai/ha; for pest or weed control at 70 g/ha: 70 g ai/ha; for pest or weed control at 140 g/ha: 140 g ai/ha
Summary of the method: as §1

[3] = ABUTH: velvetleaf (Abutilon theophrasti), read-out: Visual Growth Reduction (%) 14 Days After Application ABUTH
[4] = AMARE: redroot pigweed (Amaranthus retroflexus), read-out: Visual Growth Reduction (%) 14 Days After Application AMARE
[5] = BRSNN: oilseed rape, canola (Brassica napus), read-out: Visual Growth Reduction (%) 14 Days After Application BRSNN
[6] = CHEAL: lambsquarters (Chenopodium album), read-out: Visual Growth Reduction (%) 14 Days After Application CHEAL
[7] = EPHHL: wild poinsettia (Euphorbia heterophylla), read-out: Visual Growth Reduction (%) 14 Days After Application EPHHL
[8] = HELAN: sunflower (Helianthus annuus), read-out: Visual Growth Reduction (%) 14 Days After Application HELAN
[9] = barnyardgrass (Echinochloa crus-galli), read-out: Visual Growth Reduction (%) 14 Days After Application, ECHCG
[10] = giant foxtail (Setaria faberi), read-out: Visual Growth Reduction (%) 14 Days After Application, SETFA
[11] = maize, corn (Zea mays), read-out: Visual Growth Reduction (%) 14 Days After Application, ZEAMX
[12] = rice (Oryza sativa), read-out: Visual Growth Reduction (%) 14 Days After Application, ORYSA
[13] = wheat, spring (Triticum aestivum), read-out: Visual Growth Reduction (%) 14 Days After Application, TRZAS
[14] = yellow nutsedge (Cyperus esculentus), read-out: Visual Growth Reduction (%) 14 Days After Application, CYPES

How did the pest or weed control at 35 g/ha [1, 3] turn out when `COc1c(N)nc(-c2ccc(Cl)c3c2OC(F)(F)O3)nc1C(=O)O` [Compound 96] was run?
The pest or weed control at 35 g/ha was 75 to 84%.

What about the pest or weed control at 70 g/ha [1, 3] of the same molecule?
The pest or weed control at 70 g/ha was 60 to 74%.

And the pest or weed control at 140 g/ha [1, 3]?
Its pest or weed control at 140 g/ha is 85 to 94%.

And the pest or weed control at 35 g/ha [1, 4]?
Its pest or weed control at 35 g/ha is 95 to 100%.

What about the pest or weed control at 70 g/ha [1, 4] of the same molecule?
The pest or weed control at 70 g/ha was 95 to 100%.

And the pest or weed control at 140 g/ha [1, 4]?
Its pest or weed control at 140 g/ha is 95 to 100%.

What about the pest or weed control at 35 g/ha [1, 5] of the same molecule?
The pest or weed control at 35 g/ha was 0 to 29%.

And the pest or weed control at 70 g/ha [1, 5]?
Its pest or weed control at 70 g/ha is 75 to 84%.

What about the pest or weed control at 140 g/ha [1, 5] of the same molecule?
Its pest or weed control at 140 g/ha is 85 to 94%.

And the pest or weed control at 35 g/ha [1, 6]?
The pest or weed control at 35 g/ha was 95 to 100%.

And the pest or weed control at 70 g/ha [1, 6]?
The pest or weed control at 70 g/ha was 95 to 100%.

And the pest or weed control at 140 g/ha [1, 6]?
The pest or weed control at 140 g/ha was 95 to 100%.

And the pest or weed control at 35 g/ha [1, 7]?
The pest or weed control at 35 g/ha was 0 to 29%.

What about the pest or weed control at 70 g/ha [1, 7] of the same molecule?
The pest or weed control at 70 g/ha was 0 to 29%.

And the pest or weed control at 140 g/ha [1, 7]?
The pest or weed control at 140 g/ha was 0 to 29%.

And the pest or weed control at 35 g/ha [1, 8]?
Its pest or weed control at 35 g/ha is 95 to 100%.

And the pest or weed control at 70 g/ha [1, 8]?
Its pest or weed control at 70 g/ha is 95 to 100%.

What about the pest or weed control at 140 g/ha [1, 8] of the same molecule?
Its pest or weed control at 140 g/ha is 95 to 100%.

And the pest or weed control at 35 g/ha [2, 9]?
The pest or weed control at 35 g/ha was 0 to 29%.

What about the pest or weed control at 70 g/ha [2, 9] of the same molecule?
The pest or weed control at 70 g/ha was 0 to 29%.

And the pest or weed control at 140 g/ha [2, 9]?
The pest or weed control at 140 g/ha was 0 to 29%.

And the pest or weed control at 35 g/ha [2, 10]?
Its pest or weed control at 35 g/ha is 0 to 29%.

And the pest or weed control at 70 g/ha [2, 10]?
The pest or weed control at 70 g/ha was 0 to 29%.

What about the pest or weed control at 140 g/ha [2, 10] of the same molecule?
Its pest or weed control at 140 g/ha is 0 to 29%.

What about the pest or weed control at 35 g/ha [2, 11] of the same molecule?
The pest or weed control at 35 g/ha was 30 to 44%.

And the pest or weed control at 70 g/ha [2, 11]?
The pest or weed control at 70 g/ha was 60 to 74%.

And the pest or weed control at 140 g/ha [2, 11]?
The pest or weed control at 140 g/ha was 60 to 74%.

And the pest or weed control at 35 g/ha [2, 12]?
The pest or weed control at 35 g/ha was 0 to 29%.

What about the pest or weed control at 70 g/ha [2, 12] of the same molecule?
Its pest or weed control at 70 g/ha is 0 to 29%.

What about the pest or weed control at 140 g/ha [2, 12] of the same molecule?
Its pest or weed control at 140 g/ha is 0 to 29%.

What about the pest or weed control at 35 g/ha [2, 13] of the same molecule?
The pest or weed control at 35 g/ha was 0 to 29%.

And the pest or weed control at 70 g/ha [2, 13]?
Its pest or weed control at 70 g/ha is 30 to 44%.

And the pest or weed control at 140 g/ha [2, 13]?
Its pest or weed control at 140 g/ha is 45 to 59%.

What about the pest or weed control at 35 g/ha [2, 14] of the same molecule?
The pest or weed control at 35 g/ha was 0 to 29%.

And the pest or weed control at 70 g/ha [2, 14]?
The pest or weed control at 70 g/ha was 0 to 29%.

And the pest or weed control at 140 g/ha [2, 14]?
The pest or weed control at 140 g/ha was 0 to 29%.

— patent publication US9149038B2, “4-amino-6-(heterocyclic)picolinates and 6-amino-2-(heterocyclic)pyrimidine-4-carboxylates and their use as herbicides” (Dow AgroSciences LLC, priority 2013, dated 2015)
